Source: US6585987B1, “Complexes of hyaluronic acid/carnitines and pharmaceutical and cosmetic compositions” (Continental Projects Limited, priority 1998, dated 2003)

How the values were obtained:
[1] = tested on: trophic ulcers of lower limbs; assay: Clinical trial in trophic ulcers of lower limbs, topical treatment; type: in vivo, human; conditions: for number of patients with VERY GOOD result: 30 patients; for overall results compared with the combination (in words): same treatment time
Procedure: The used protocol is the following one:
1) Topical administrations of a combination of hyaluronic acid and carnitine (1:1 by weight), or of carnitine alone or of hyaluronic acid alone, previous humidification of the lesion with saline for a time of 10 minutes. In the first treatments, it is possible to use hyaluronic acid at a higher concentration than carnitine, to promote ulcer cleansing. In the following treatments, such concentrations of the two molecules have been used as to better make use of the role of carnitine in normalizing tissue trophism. Treatment usually started during hospitalization and was subsequently continued at the nalgesic therapy clinic.
Patients enrolled in this trial came from Medicine and Surgery Departments, where they unsuccessfully received various medical treatments (mesoglycan, Connectivine, mucopolysaccharides).
18 females and 12 males were treated, of age from 62 to 80 years, with trophic ulcers of various size and at different sites, anyhow on limbs or feet.
Results were scored as follows: VERY GOOD, when the ulcer healed completely; GOOD, when an at least 50% reduction of the lesion was attained; NULL, when no significant changes of the lesion occurred after 30 day-treatment.

[2] = tested on: ornithinedecarboxylase; assay: Increase of ornithinedecarboxylase activity induced by theleocidin in skin; type: in vivo, mice; conditions: epidermis five hours after
Procedure: These skin alterations increase the ornithinedecarboxylase enzyme, and this increase is related to the severity of the induced cutaneous damage.
In these experiences, theleocidin is injected on mice back shaved skin at a dosage of 5 mcg/mouse dissolved in 0.2 cc of solution.
HA and AC either administered alone, or together or in the form of a complex according to the invention, are spread five minute's before theleocidin on the backs of the animals. Ornithinedecarboxylase is dosed on the homogenised epidermis of the animals five hours after the theleocidin injection, according to the method by O'Brien and Nakadate (O'Brien T. G., Cancer Res., 35, 1662, 1975—Nakadate T. Cancer Res., 42, 2841, 1982). Protein concentration of an epidermis extract is evaluated following the method described by Lowry (Lowry O. H., J. Biol. Chem., 193, 265, […]).

[3] = tested on: cartilage explants; assay: PG and HA synthesis in cartilage explants (pulse studies, 3H-glucosamine); type: cell-based, human
Procedure: (§1) Thirty-five subjects were included in the study. Exclusion criteria were septicaemia, connective tissue disordes, rheumatoid arthritis, crystal deposition diseases, known hereditary or congenital defects, immobilization for several weeks as well as treatment with corticosteroids and cytotoxic drugs.
(§2) Tissue specimens obtained from each donor were cut into pieces of 3-6 mg in Dulbecco's modified Eagle's medium (DMEM) supplemented with penicillin (5.000 i.u. ml^−1) The tissue was washed 3 times with this culture medium. Cartilage pieces were taken at random, weighed and distributed into the different wells of multiwell culture plates (typically between 30 and 60 mg tissue/well). Extra pieces were not cultured but stored at −20° C. in order to assess the initial proteoglycans (PG) and HA contents of the cartilage. Culture medium supplemented with 20% (v/v) foetal calf serum (culture medium A) was then added to each well and the culture plates were placed in a 90%: 10% (v/v) air: CO2 humidified incubator for 48 h at 37° C.
(§3) For each experiment the cartilage from one individual was used and tissue cultures were conducted in triplicate: that is, for the control culture as well as for each HA, Acetyl-carnitine (ALC) or HA+ALC, 3 cartilage explants were cultured separately. Reported values are the mean of the triplicate cultures.
After 2 day of culture, the culture medium was aspirated and the explants were washed 3 times with 1 ml of DMEM. Explants were resuspended in 5% FCS culture medium (1 ml 50 mg^−1 tissue) supplemented with ^3H-glucosamine (50 μCi ml^−1) (culture medium B). To each well, a solution of HA, Acetyl-carnitine (ALC) or HA+ALC, was added ([…] in culture medium) to achieve the final concentration of 100 μg of HA and 100 μg of ALC. Control culture received medium alone. Culture wells were then incubated for 12 h. […]
(§4) The Econo-Pak Q column (5 ml) was pre-equilibrated in buffer A at a flow rate of 2 ml min^−1. […] Fractions of 2 ml were collected and assayed for radioactivity. […]

[4] = tested on: barrier function of corneal epithelium; assay: Clinical trial in dry eye syndrome: barrier function of corneal epithelium (fluorescein test, fluorophotometry); type: in vivo, human; conditions: 27 dry eye patients, collyrium for 4 weeks; improvement after 2 weeks in lower cornea areas, 4 weeks in central ones
Description: Dryness of the conjunctiva, isolated or in association with other ocular or extra-ocular disease, is recognizedly capable of inducing local damage on corneal epithelium which can, inter alia, lose its barrier function. […] According to the protocol, each patient received for 4 weeks a medication (hyaluronic acid) in the form of collyrium in one eye and a different treatment (hyaluronic acid/carnitine) in the other eye, so that each patient also acted as the control. Subjective evaluation and clinical examinations, associated with a fluorescein test, were carried out 2 weeks after the beginning of the treatment as well as at its end (4 weeks).

[5] = tested on: cartilage explants; assay: Net loss of labelled PG and HA from cartilage explants (chase studies); type: cell-based, human
Procedure: as §1, §2, §3
After one day of culture in medium A, the cartilage pieces were aspirated free of medium, washed 3 times with 1 ml of DMEM, resuspended in culture medium B (1 ml 50 mg^−1 tissue) and cultured for 12 h. After pulse labelling, the cartilage pieces were washed with DMEM and resuspended in culture medium A. Medium alone or the appropriate molecules (HA, ALC or HA+ALC) dissolved in medium were added to each well (10 μl ml^−1) as stated above and a non-radioactive chase period was conducted for 24 h. […]
as §4

[6] = tested on: Dithranol induced inflammation; assay: Antiinflammatory activity on dithranol induced cutaneous inflammation; type: in vivo, Guinea pigs; conditions: 48 hours
Description: A specific cutaneous inflammatory reaction, caused by different phlogogenic factors both of exogenous and endogenous origin, including the formation of free radicals, lipoperoxides, prostaglandins and cytokines, is that induced by intradermal injection of dithranol, as described by Mustakallio (Mustakallio K., DERMATOVENER, 54, 125, 1979).
Dithranol is intradermally injected at the dose of 20 mcg on the back of shaved Guinea pigs.
On the opposite side of the back, before the injection of the same amount of dithranol, HA alone or acetyl-L-carnitine (AC) alone, or HA and AC together or the HA and AC complex, are spread.
A mixture of lanolin and ethylene glycol monostearate was used to spread these compounds.

[7] = 100 μg of HA and/or 100 μg of ALC, 12 h pulse

| Compound | number of patients with VERY GOOD result ([1]; 30 day-treatment) | overall results compared with the combination (in words) [1] | ornithinedecarboxylase activity ([2]; 10 mg spread five minutes before theleocidin 5 mcg/mouse) | ornithinedecarboxylase activity ([2]; 50 mg spread five minutes before theleocidin 5 mcg/mouse) | HA synthesis d.p.m. [^3H] HA × 10^3/h/mg OH/proline [3, 7] | PG synthesis d.p.m. [^3H] PG × 10^3/h/mg OH/proline [3, 7] | PG and HA synthesis (in words) ([3]; text summary of Table 4) | patients with GOOD result (at least 50% reduction of the lesion) ([1]; 30 day-treatment) | symptoms and barrier function of corneal epithelium (in words) [4] | net loss of labelled PGs and HA (in words) ([5]; 24 h chase, Table 5) | % of radiolabelled molecules recovered in the media, [^3H] HA Loss/24 h ([5]; 24 h non-radioactive chase) | % of radiolabelled molecules recovered in the media, [^3H] PG Loss/24 h ([5]; 24 h non-radioactive chase) | % inhibition of phlogistic area compared with controls ([6]; 10 mg spread on skin before dithranol 20 mcg intradermal) | % inhibition of phlogistic area compared with controls ([6]; 50 mg spread on skin before dithranol 20 mcg intradermal) | inhibition of the inflammation area induced by dithranol ([6]; dose not stated) |
| --- | --- | --- | --- | --- | --- | --- | --- | --- | --- | --- | --- | --- | --- | --- | --- |
| C[N+](C)(C)C[C@H](O)CC(=O)[O-] [L-Carnitine, L-carnitine] | in no patients | remarkably poorer |  |  |  |  |  |  |  |  |  |  |  |  |  |
| hyaluronic acid [HA] | in no patients | remarkably poorer | 21 ± 2.8 nmol of CO2/60 min./mg protein | 31 ± 4.1 nmol of CO2/60 min./mg protein | 4.5 ± 0.93 d.p.m. [^3H] HA × 10^3/h/mg OH/proline | 39.2 ± 9.2 d.p.m. [^3H] PG × 10^3/h/mg OH/proline | slight increase | 16% | did not provide significant advantages | reduced only the net loss of labelled HA | 28.0 ± 6.09% | 20.1 ± 7.5% | 39 ± 1.6% | 38 ± 2.9% | about 30% |
